According to patent US20020137929A1, “1 - (3-heterocyclylphenyl) isothiourea, -isourea, -guanidine and -amidine herbicidal agents” (Intellectual Property Department, BASF Aktiengesellschaft, priority 1998, published 2002):

Tests used:
ABUTH (Velvetleaf) = experiment: Postemergence herbicidal evaluation; format: in vivo, Abutilon theophrasti; conditions: postemergence
Procedure, shortened: (§1)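 Rate range approx. 0.0156–0.500 kg/ha. Foliar application at 40 psi to ~2-week seedlings; surfactant 0.5% TWEEN 20 in 50/50 acetone/water. Evaluation 4–5 wk post-treatment by 0–9 visual injury score, means of replicate tests.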

GALAP (Galium) = experiment: Postemergence herbicidal evaluation; format: in vivo, Galium aparine; conditions: postemergence
Procedure, shortened: as §1

ECHCG (Barnyardgrass) = experiment: Postemergence herbicidal evaluation; format: in vivo, Echinochloa crus-galli; conditions: postemergence
Procedure, shortened: as §1

SETVI (Foxtail, Green) = experiment: Postemergence herbicidal evaluation; format: in vivo, Setaria viridis; conditions: postemergence
Procedure, shortened: as §1

ORYSAT (Rice, Tebonnet) = experiment: Postemergence herbicidal evaluation; format: in vivo, Oryza sativa, (L.) Tebonnet; conditions: postemergence
Procedure, shortened: as §1

[1] = test system: IPOHE (Morningglory, Ivyleaf); experiment: Preemergence herbicidal evaluation; format: in vivo, Ipomoea hederacea; conditions: rated 4-5 weeks after treatment
Procedure, shortened: (§2)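 Scores use a 0–9 visual scale covering stand, vigor, malformation, size and chlorosis relative to controls, rated four to five weeks after treatment. Before emergence, soil-planted seeds were sprayed with compound in aqueous acetone at roughly 0.0156–0.500 kg/ha and held in the greenhouse.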

[2] = test system: TRZAWR (Wheat, Winter, cv Riband); experiment: Preemergence herbicidal evaluation; format: in vivo, Triticum aestivum; conditions: rated 4-5 weeks after treatment
Procedure, shortened: as §2

ZEAMX (Corn, Field) = experiment: Preemergence herbicidal evaluation; format: in vivo, Zea mays; conditions: rated 4-5 weeks after treatment
Procedure, shortened: as §2

[3] = test system: ECHORC (Watergrass (Calif.)); experiment: Preemergence weed control under flooded paddy conditions; format: in vivo, Echinochloa oryzoides; conditions: rated 3-4 weeks after treatment
Procedure, shortened: (§3)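 Ratings on a 0-9 visual scale cover stand, vigor, malformation, size, chlorosis and overall appearance relative to a control, taken three to four weeks post-treatment. Application was into flood water over freshly sown silt loam at roughly 0.0313 to 0.500 kg/ha.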

CYPIR (Rice Flatsedge) = experiment: as above; format: in vivo, Cyperus iria; conditions: rated 3-4 weeks after treatment
Procedure, shortened: as §3

MOOVA (Monochoria) = experiment: as above; format: in vivo, Monochoria vaginalis; conditions: rated 3-4 weeks after treatment
Procedure, shortened: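 First, seeds or propagules go into the top 0.5 cm of silt loam; next, water is held 1.5 to 3 cm over the soil; then compound (50/50 acetone/water) is pipetted into it at about 0.0313 to 0.500 kg/ha; finally plants are rated visually 0-9 after three to four weeks.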

[4] = rate 0.1250 kg/ha, rating scale 0-9
[5] = rate 0.2500 kg/ha, rating scale 0-9

## CCOC(=O)CN1C(=O)C(Br)SC1=Nc1cc(-n2c(=O)cc(C(F)(F)F)n(C)c2=O)c(F)cc1Cl (centres unmarked) [Compound 153, Ethyl 5-bromo-2-[{2-chloro-5-[3,6-dihydro-3-methyl-2,6-dioxo-4-(trifluoromethyl)-1(2H)-pyrimidinyl]-4-fluorophenyl}imino}-4-oxo-3-thiazolidineacetate]
ABUTH (Velvetleaf); rate 0.0156 kg/ha
  Herbicidal rating ABUTH: 1.0
ABUTH (Velvetleaf); rate 0.0313 kg/ha
  Herbicidal rating ABUTH: 1.0
ABUTH (Velvetleaf); rate 0.0625 kg/ha
  Herbicidal rating ABUTH: 5.0
GALAP (Galium); rate 0.0156 kg/ha
  Herbicidal rating GALAP: 0.0
GALAP (Galium); rate 0.0313 kg/ha
  Herbicidal rating GALAP: 0.0
GALAP (Galium); rate 0.0625 kg/ha
  Herbicidal rating GALAP: 0.0
ECHCG (Barnyardgrass); rate 0.0156 kg/ha
  Herbicidal rating ECHCG: 0.0
ECHCG (Barnyardgrass); rate 0.0313 kg/ha
  Herbicidal rating ECHCG: 0.0
ECHCG (Barnyardgrass); rate 0.0625 kg/ha
  Herbicidal rating ECHCG: 1.0
SETVI (Foxtail, Green); rate 0.0156 kg/ha
  Herbicidal rating SETVI: 0.0
SETVI (Foxtail, Green); rate 0.0313 kg/ha
  Herbicidal rating SETVI: 0.0
SETVI (Foxtail, Green); rate 0.0625 kg/ha
  Herbicidal rating SETVI: 0.0
ORYSAT (Rice, Tebonnet); rate 0.0156 kg/ha
  Herbicidal rating ORYSAT: 1.5
ORYSAT (Rice, Tebonnet); rate 0.0313 kg/ha
  Herbicidal rating ORYSAT: 1.5
ORYSAT (Rice, Tebonnet); rate 0.0625 kg/ha
  Herbicidal rating ORYSAT: 1.5
[1]; [4]
  Preemergence herbicidal rating IPOHE: 1.0
[1]; [5]
  Preemergence herbicidal rating IPOHE: 0.0
[2]; [4]
  Preemergence herbicidal rating TRZAWR: 0.0
[2]; [5]
  Preemergence herbicidal rating TRZAWR: 0.0
ZEAMX (Corn, Field); [4]
  Preemergence herbicidal rating ZEAMX: 0.0
ZEAMX (Corn, Field); [5]
  Preemergence herbicidal rating ZEAMX: 0.0
[3]; 0.0625 kg/ha
  herbicidal effect rating, ECHORC: 0.0
[3]; 0.1250 kg/ha
  herbicidal effect rating, ECHORC: 0.0
[3]; 0.2500 kg/ha
  herbicidal effect rating, ECHORC: 0.0
CYPIR (Rice Flatsedge); 0.0625 kg/ha
  herbicidal effect rating, CYPIR: 0.0
CYPIR (Rice Flatsedge); 0.1250 kg/ha
  herbicidal effect rating, CYPIR: 0.0
CYPIR (Rice Flatsedge); 0.2500 kg/ha
  herbicidal effect rating, CYPIR: 3.0
MOOVA (Monochoria); 0.0625 kg/ha
  herbicidal effect rating, MOOVA: 3.0
MOOVA (Monochoria); 0.1250 kg/ha
  herbicidal effect rating, MOOVA: 4.0
MOOVA (Monochoria); 0.2500 kg/ha
  herbicidal effect rating, MOOVA: 5.0

## CC(C)OC(=O)CN1C(=O)CSC1=Nc1cc(-n2c(=O)cc(C(F)(F)F)n(C)c2=O)c(F)cc1Cl [Compound 110]
ABUTH (Velvetleaf); rate 0.0158 kg/ha
  Herbicidal rating ABUTH: 9.0
ABUTH (Velvetleaf); rate 0.0315 kg/ha
  Herbicidal rating ABUTH: 9.0
ABUTH (Velvetleaf); rate 0.0630 kg/ha
  Herbicidal rating ABUTH: 9.0
GALAP (Galium); rate 0.0158 kg/ha
  Herbicidal rating GALAP: 1.0
GALAP (Galium); rate 0.0315 kg/ha
  Herbicidal rating GALAP: 3.0
GALAP (Galium); rate 0.0630 kg/ha
  Herbicidal rating GALAP: 4.0
ECHCG (Barnyardgrass); rate 0.0158 kg/ha
  Herbicidal rating ECHCG: 1.0
ECHCG (Barnyardgrass); rate 0.0315 kg/ha
  Herbicidal rating ECHCG: 5.0
ECHCG (Barnyardgrass); rate 0.0630 kg/ha
  Herbicidal rating ECHCG: 4.0
SETVI (Foxtail, Green); rate 0.0158 kg/ha
  Herbicidal rating SETVI: 1.0
SETVI (Foxtail, Green); rate 0.0315 kg/ha
  Herbicidal rating SETVI: 9.0
SETVI (Foxtail, Green); rate 0.0630 kg/ha
  Herbicidal rating SETVI: 9.0
ORYSAT (Rice, Tebonnet); rate 0.0158 kg/ha
  Herbicidal rating ORYSAT: 2.5
ORYSAT (Rice, Tebonnet); rate 0.0315 kg/ha
  Herbicidal rating ORYSAT: 3.5
ORYSAT (Rice, Tebonnet); rate 0.0630 kg/ha
  Herbicidal rating ORYSAT: 3.5
[1]; rate 0.0156 kg/ha
  Preemergence herbicidal rating IPOHE: 3.5
[1]; rate 0.0313 kg/ha
  Preemergence herbicidal rating IPOHE: 4.5
[1]; rate 0.0625 kg/ha
  Preemergence herbicidal rating IPOHE: 5.5
[1]; rate 0.1250 kg/ha
  Preemergence herbicidal rating IPOHE: 9.0
[1]; rate 0.2500 kg/ha
  Preemergence herbicidal rating IPOHE: 9.0
[1]; rate 0.5000 kg/ha
  Preemergence herbicidal rating IPOHE: 9.0
[2]; rate 0.0156 kg/ha
  Preemergence herbicidal rating TRZAWR: 0.0
[2]; rate 0.0313 kg/ha
  Preemergence herbicidal rating TRZAWR: 1.0
[2]; rate 0.0625 kg/ha
  Preemergence herbicidal rating TRZAWR: 1.0
[2]; rate 0.1250 kg/ha
  Preemergence herbicidal rating TRZAWR: 1.0
[2]; rate 0.2500 kg/ha
  Preemergence herbicidal rating TRZAWR: 1.0
ZEAMX (Corn, Field); rate 0.0156 kg/ha
  Preemergence herbicidal rating ZEAMX: 0.0
ZEAMX (Corn, Field); rate 0.0313 kg/ha
  Preemergence herbicidal rating ZEAMX: 0.5
ZEAMX (Corn, Field); rate 0.0625 kg/ha
  Preemergence herbicidal rating ZEAMX: 1.0
ZEAMX (Corn, Field); rate 0.1250 kg/ha
  Preemergence herbicidal rating ZEAMX: 2.5
ZEAMX (Corn, Field); rate 0.2500 kg/ha
  Preemergence herbicidal rating ZEAMX: 3.5
ZEAMX (Corn, Field); rate 0.5000 kg/ha
  Preemergence herbicidal rating ZEAMX: 4.0
[3]; 0.0313 kg/ha
  ECHORC herbicidal effect rating: 7.0
[3]; 0.0625 kg/ha
  ECHORC herbicidal effect rating: 7.0
[3]; 0.1250 kg/ha
  ECHORC herbicidal effect rating: 7.0
[3]; 0.2500 kg/ha
  ECHORC herbicidal effect rating: 9.0
CYPIR (Rice Flatsedge); 0.0313 kg/ha
  CYPIR herbicidal effect rating: 3.0
CYPIR (Rice Flatsedge); 0.0625 kg/ha
  CYPIR herbicidal effect rating: 4.0
CYPIR (Rice Flatsedge); 0.1250 kg/ha
  CYPIR herbicidal effect rating: 7.0
CYPIR (Rice Flatsedge); 0.2500 kg/ha
  CYPIR herbicidal effect rating: 8.0
MOOVA (Monochoria); 0.0313 kg/ha
  MOOVA herbicidal effect rating: 9.0
MOOVA (Monochoria); 0.0625 kg/ha
  MOOVA herbicidal effect rating: 9.0
MOOVA (Monochoria); 0.1250 kg/ha
  MOOVA herbicidal effect rating: 9.0
MOOVA (Monochoria); 0.2500 kg/ha
  MOOVA herbicidal effect rating: 9.0

## Cn1c(C(F)(F)F)cc(=O)n(-c2cc(N=C3SCC(=O)N3C3CCC3)c(Cl)cc2F)c1=O [Compound 168, 3-{4-Chloro-5-[(3-cyclobutyl-4-oxo-2-thiazolidinylidene)amino]-2-fluorophenyl}-1-methyl-6-(trifluoromethyl)-2,4(1H,3H)-pyrimidinedione]
ABUTH (Velvetleaf); rate 0.0156 kg/ha
  Herbicidal rating ABUTH: 9.0
ABUTH (Velvetleaf); rate 0.0313 kg/ha
  Herbicidal rating ABUTH: 9.0
ABUTH (Velvetleaf); rate 0.0625 kg/ha
  Herbicidal rating ABUTH: 9.0
GALAP (Galium); rate 0.0156 kg/ha
  Herbicidal rating GALAP: 0.0
GALAP (Galium); rate 0.0313 kg/ha
  Herbicidal rating GALAP: 1.0
GALAP (Galium); rate 0.0625 kg/ha
  Herbicidal rating GALAP: 3.0
ECHCG (Barnyardgrass); rate 0.0156 kg/ha
  Herbicidal rating ECHCG: 0.0
ECHCG (Barnyardgrass); rate 0.0313 kg/ha
  Herbicidal rating ECHCG: 0.0
ECHCG (Barnyardgrass); rate 0.0625 kg/ha
  Herbicidal rating ECHCG: 4.0
SETVI (Foxtail, Green); rate 0.0156 kg/ha
  Herbicidal rating SETVI: 0.0
SETVI (Foxtail, Green); rate 0.0313 kg/ha
  Herbicidal rating SETVI: 0.0
SETVI (Foxtail, Green); rate 0.0625 kg/ha
  Herbicidal rating SETVI: 3.0
ORYSAT (Rice, Tebonnet); rate 0.0156 kg/ha
  Herbicidal rating ORYSAT: 1.0
ORYSAT (Rice, Tebonnet); rate 0.0313 kg/ha
  Herbicidal rating ORYSAT: 1.5
ORYSAT (Rice, Tebonnet); rate 0.0625 kg/ha
  Herbicidal rating ORYSAT: 2.5
[1]; 0.0156 kg/ha
  Preemergence herbicidal rating IPOHE: 0.0
[1]; 0.0313 kg/ha
  Preemergence herbicidal rating IPOHE: 0.0
[1]; 0.0625 kg/ha
  Preemergence herbicidal rating IPOHE: 0.0
[1]; 0.1250 kg/ha
  Preemergence herbicidal rating IPOHE: 3.0
[1]; 0.2500 kg/ha
  Preemergence herbicidal rating IPOHE: 4.0
[2]; 0.0156 kg/ha
  Preemergence herbicidal rating TRZAWR: 0.0
[2]; 0.0313 kg/ha
  Preemergence herbicidal rating TRZAWR: 0.0
[2]; 0.0625 kg/ha
  Preemergence herbicidal rating TRZAWR: 0.0
[2]; 0.1250 kg/ha
  Preemergence herbicidal rating TRZAWR: 0.0
[2]; 0.2500 kg/ha
  Preemergence herbicidal rating TRZAWR: 0.0
ZEAMX (Corn, Field); 0.0156 kg/ha
  Preemergence herbicidal rating ZEAMX: 0.0
ZEAMX (Corn, Field); 0.0313 kg/ha
  Preemergence herbicidal rating ZEAMX: 0.0
ZEAMX (Corn, Field); 0.0625 kg/ha
  Preemergence herbicidal rating ZEAMX: 0.0
ZEAMX (Corn, Field); 0.1250 kg/ha
  Preemergence herbicidal rating ZEAMX: 0.0
ZEAMX (Corn, Field); 0.2500 kg/ha
  Preemergence herbicidal rating ZEAMX: 0.0
[3]; 0.0313 kg/ha
  herbicidal effect rating, ECHORC: 0.0
[3]; 0.0625 kg/ha
  herbicidal effect rating, ECHORC: 0.0
[3]; 0.1250 kg/ha
  herbicidal effect rating, ECHORC: 0.0
[3]; 0.2500 kg/ha
  herbicidal effect rating, ECHORC: 0.0
CYPIR (Rice Flatsedge); 0.0313 kg/ha
  herbicidal effect rating, CYPIR: 0.0
CYPIR (Rice Flatsedge); 0.0625 kg/ha
  herbicidal effect rating, CYPIR: 0.0
CYPIR (Rice Flatsedge); 0.1250 kg/ha
  herbicidal effect rating, CYPIR: 0.0
CYPIR (Rice Flatsedge); 0.2500 kg/ha
  herbicidal effect rating, CYPIR: 0.0
MOOVA (Monochoria); 0.0313 kg/ha
  herbicidal effect rating, MOOVA: 6.0
MOOVA (Monochoria); 0.0625 kg/ha
  herbicidal effect rating, MOOVA: 6.0
MOOVA (Monochoria); 0.1250 kg/ha
  herbicidal effect rating, MOOVA: 6.0
MOOVA (Monochoria); 0.2500 kg/ha
  herbicidal effect rating, MOOVA: 7.0
